Reference: article PMC6977461 (Chemical Science, 2019)
*1 amine or outer side, *2 acyl side, *3 side chain or, on linkers, in order; H or OH if unused. The star is where a group is joined. X1 = C[C@@H](CN*)NC(=O)[C@@H](N)Cc1c[nH]cn1; CO = O=C([*:1])[*:2]

Tests used:
[1] = system: C57BL/6J mice; experiment: dose-response study in healthy mice, IPGTT 6 h after agonist; format: in vivo, mouse
Protocol: Mice were lightly fasted (4 hours) before IP administration of varying doses of each agonist or vehicle (100 µL saline). After a further 6 hours, blood glucose was measured (GlucoRx) from the tail followed by IP administration of 2 g/kg 20% glucose. Blood glucose was monitored at 20, 40 and 60 minute time- […]
performed on the area-under-curve for each set of data.
Study in db/db mice (15 days).
After the acclimation period of 5 days, male db/db mice 8 weeks old (Charles River laboratories) were randomized into groups (n=10) according to their body weight, HOMA-IR and HbA1C measured after an overnight fast and 8 non diabetic mice were excluded. Mice were chronically treated during 15 days via s.c. route (once daily) at around 8AM with the vehicle or with 100 µg kg-1 (25 nmol kg-1) of the oligomers. Formulation: 20 µg mL-1 in PBS 1×. On the 7th day of treatment, fed blood glucose was […]
On the 12th day of treatment, mice were fasted 6 hours and an OGTT (glucose 1 g kg-1 p.o.) was performed 6 hours (2 PM) after the dosing. Blood glucose was […]
On the 15th day of treatment, mice were fasted 6 hours and an ITT (insulin 2 U kg-1 i.p.) was performed 6 hours (2 PM) after the dosing. […]
samples were collected for measuring HbA1c just before the start of the treatments and at the end of […]
Fifteen mice (male C57BL/6J mice (Janvier Labs, France) 9 weeks old, 20-25 g) were treated with GLP-1 analogues via i.v. injections (2 mg kg-1) formulated at 1 mg mL-1 in PBS 1×. After different time points mice were sacrificed and blood sample were collected. The plasma was separated by centrifugation and the samples were frozen at -80°C before analysis. A volume of 400 µL of each sample of plasma was mixed with 1 ml of acetonitrile to precipitate the protein and extract the compound. The sample were then vortexed and centrifuged (15 000 × g, 5 min, 16 °C) to sediment the precipitated protein.
The supernatant was analysed by LC-MS/MS using a UHPLC coupled to LC-MS 8030 Shimadzu triple […]
Molecular dynamics simulation of GLP-1R in complex with ureidopeptide 3 […]
Human GLP-1R which shares […]

[2] = target: T1, SNAP-tagged human GLP-1R (Homo sapiens, UniProt P43220); experiment: SNAP-GLP-1R internalization by confocal microscopy in INS-1 832/3 cells; format: cell-based; settings: 10 nM ligand, 30 min, versus non-ureido peptides
T1 construct: host or cells: INS-1 832/3 cells with endogenous GLP-1R deleted by CRISPR/Cas9

[3] = target: GLP-1R (Homo sapiens, UniProt P43220); experiment: signal bias, cAMP vs β-arrestin-2, PathHunter CHO-GLP-1R cells (operational model); format: cell-based; set-up: host or cells: PathHunter CHO-GLP-1R-βarr2 cells; settings: relative to GLP-1-NH2 (2), n = 5
Protocol: signal measured at 665 nm by that measured at 620 nm (ratio). The results are expressed as a percent […]
tested in each experiment at several concentrations to generate a concentration-response curve from which its EC50 value and SE are calculated using GraphPad Prism.
In vitro pharmacology on immortalised CHO-GLP-1R cells (EC50: Method C3) PathHunter CHO-GLP-1R cells were stimulated for 30 min at 37°C with indicated concentration of agonist in serum free medium without phosphodiesterase inhibitors. The reaction was terminated by addition of cAMP detection reagents (cAMP Dynamic 2, Cisbio) and read by HTRF.
β-arrestin-2 recruitment assay […]
agonist in serum free medium. The reaction was terminated by addition of PathHunter detection reagents (DiscoverX) and luminescent signal recorded.
Calculation of signal bias
Biased signalling was quantified using a modified form of the operational model.[6] LogR values were calculated for each ligand in each assay, and ∆LogR were determined by subtracting from the […]
Bias was then determined as ∆∆LogR by subtracting ∆LogR for […]

[4] = healthy C57BL/6J mice, 0.01 to 10 nmol kg-1 i.p., IPGTT 6 h after dose, 3-parameter fit of AUC, n = 8

T1 sequence (P43220 24-463): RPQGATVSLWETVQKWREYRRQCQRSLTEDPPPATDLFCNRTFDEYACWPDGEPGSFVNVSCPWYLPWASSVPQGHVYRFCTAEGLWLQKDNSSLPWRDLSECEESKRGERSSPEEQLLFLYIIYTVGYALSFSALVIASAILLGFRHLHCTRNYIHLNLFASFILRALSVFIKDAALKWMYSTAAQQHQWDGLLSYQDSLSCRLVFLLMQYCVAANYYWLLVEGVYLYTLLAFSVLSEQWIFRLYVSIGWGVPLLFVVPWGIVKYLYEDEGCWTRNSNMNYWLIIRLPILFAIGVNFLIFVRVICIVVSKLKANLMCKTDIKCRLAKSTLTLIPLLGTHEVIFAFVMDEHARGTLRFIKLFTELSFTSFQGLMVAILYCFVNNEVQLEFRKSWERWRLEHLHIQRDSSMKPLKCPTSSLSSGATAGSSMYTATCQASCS
Chain of GLP-1R (P43220 24-463): as above

## {X1-CO}-EGTFTSDLSKQLEEEAVRLFIEWLKNGGPSSGAPPSKKKKKK-NH2 [compound 14]
[1]; 11 versus exenatide (9), 14 versus LixiL (13)
  improvement of ED50 versus parent peptide: five-fold improvement
[1]; [4]
  ED50 (printed in Fig. 4): 0.47
  ED50 in vivo: 0.46 nmol/kg
[2]
  endocytosis of the GLP-1R: noticeably reduced
[3]
  signal bias (cAMP vs β-arrestin-2): strong preference for cAMP signalling
